Paper PMC5532363, “Synergistic blending of high-valued heterocycles inhibits growth of Plasmodium falciparum in culture and P. berghei infection in mouse model” (Scientific Reports, 2017)
Where two headings read alike, the source gives them in different places.

How the values were obtained:
[1] = tested on: synchronized Pf3D7 strain cultures (rings, trophozoites); assay: Stage-specificity and parasitemia titres on synchronized Pf3D7 cultures (Giemsa smears); format: cell-based, Plasmodium falciparum; details: for effect on ring stage parasitemia: 6 hours post exposure of ring stages; for effect on ring stage parasitemia / effect on mature blood stage parasite titres (parasitemia): Fig. 5; for effect on mature blood stage parasite titres (parasitemia): 16 hours after incubation with trophozoite stage; for effect on progression from trophozoites to schizonts / schizont morphology: concentration = individual IC50, up to 16 hours exposure; for effect on ring-stage growth and morphology: newly synchronized rings, concentration = individual IC50, monitored at 6 and 12 hours
Protocol: Next, we sought to determine stage-specificity of the antiplasmodial activity of the four active analogues (6a, 6h, 6m and 6u) on synchronized Pf3D7 strain cultures at 2% hematocrit and 1% parasitemia, with concentrations corresponding to individual drug IC50. To determine the effect of the compounds on both early and late ring stage parasites, the treatment was conducted on newly synchronized rings for 12 hours, and drug effect on parasite growth and morphology was monitored at 6 and 12 hours after exposure. Similarly, early trophozoites were exposed to each compound and incubated for 16 hours, and monitored at 6 and 16 hours post-exposure. The effect of the compounds on parasite morphology and development was compared in exposed and unexposed drug wells (Figs 3 and 4).
Figure 5 Effect of Pht analogues on parasite growth titres (Note: Graphical description of the inhibitory effect of select analogues on parasite growth titres 6 hours after incubation with ring-stages and 16 hours after drug incubation with trophozoite stage. Parasitemia percentage was derived by counting the number of infected erythrocytes from a total of 2,000 erythrocytes on Giemsa stained thin smears from each experiment. Bar diagrams represent the average of three different experiments).

CQ resistant PfW2 strain = assay: SYBR Green I growth inhibition assay, P. falciparum W2 culture; format: cell-based; details: Plasmodium falciparum
Excerpt: (§1) Antimalarial activity of all the listed Pht analogues was initially assessed on asynchronous cultures of P. falciparum 3D7 (Pf3D7) clone using the SYBR Green assay. […] The mean IC50 values are based on three separate experiments (Table 1).
The laboratory-adapted P. falciparum strains 3D7 (Africa; CQ sensitive) and W2 (Africa; CQ resistant), were acquired from Malaria Research and Reference Reagent Resource Center (MR4) (Manassas, VA, USA) and maintained with type O +ve erythrocytes suspended in continuous complete culture medium as described. Complete culture media consisted of 10.43 g/litre of RPMI 1640-HEPES supplemented with 10% (vol/vol) human AB serum, 92.6 mg/litre L-glutamine, 50 mg/liter hypoxanthine, 2 g/litre sodium bicarbonate (Sigma-Aldrich, St. Louis, MO). Incubation of cultures was at 37 °C and maintained in a low oxygen atmosphere (5% O2, 5% CO2, 90% N). The levels of parasitemia in the cultures were maintained at between 2 and 10%, with 5% hematocrit. Media was changed after every 24 hours and parasitemia monitored every 48 hours. Synchronous cultures were prepared by sorbitol lysis. Stock solutions of the Pht, Pht analogues, and DHA were prepared in absolute dimethyl sulfoxide (DMSO) while CQ was prepared in distilled water. The prepared drug stock solutions were used immediately or stored at −80 °C for not longer than one month before use. Stock solutions were further diluted in serum free RPMI 1640 media (stock solution solvent final conc. 0.05%) before performing a 2-fold serial dilution to achieve dose ranges of 0.2 µM to 100 µM (Pht and derivatives), 7.8 to 2,000 nM (CQ) and 0.17 to 87.5 nM (DHA). 25 μL of the drug diluents were aliquoted into 96 well plates and used immediately. Alternatively, the stock solutions were diluted in distilled water, 2-fold serial dilution performed on a 96 well plate and allowed to air dry in a laminar flow hood after which dried plates were stored at 4 °C until use. SYBR Green I assay technique with additional modification was used for drug susceptibility testing of the parasites. Parasite cultures of >1% parasitemia were diluted to 1% parasitemia and 2% hematocrit and 200 μL were transferred onto drug pre-dosed plates and incubated at 37 °C for 90 hours, [40]. […] Relative fluorescence units (RFU) were read using the Perkin Elmer Wallac 1420 fluorescence plate reader, with excitation and emission wavelengths of 485 nm and 535 nm respectively. The readouts values were aligned with corresponding drug doses and analysis performed by Graph-pad Prism software. The drug concentrations (x value) were transformed using X = Log[X] and plotted against the counts (y values) and the data analysed by non-linear regression (sigmoid dose-response/variable slope equation) to yield the IC50.

[2] = MTT cytotoxicity assay in U937 cells; format: cell-based; details: human; for selectivity ratio at 24 h: U937 cells (CC50) versus 3D7 parasites (IC50), CC50 U937 / IC50 3D7, SI > 2 = low cytotoxicity, read-out: selectivity index (SI); for CC50 at 24 h: U937 cells, MTT
Protocol: As a final step in the investigational pipeline, we determined the cytotoxic effect of the four active analogues (6a, 6h, 6m and 6u) in U937 cell lines by measuring 50% cytotoxic concentrations (CC50) and calculating selectivity indices (SIs) as a measure of toxicity in human cells.
Cytotoxicity of the 4 select Pht compounds on human cells was evaluated by assessing cell viability of the U937, a human acute monocyte leukemia cell lines by use of the MTT assay. U937 was acquired from American Type Culture Collection (ATCC, Rockville, MD) and maintained in RPMI 1640 medium supplemented with 10% fetal bovine serum, and Penicillin-streptomycin (1% v/v) (Gibco, UK) at 37 °C. Robust U937 cells at a concentration of 80,000 cells/ml were plated into 96-well plates and incubated for 24 hours. Six concentrations of the Pht compounds were added in a two-fold dilution from starting concentration of 50 to 1.56 µM in triplicate and incubated with the cells for 24 hours. This was followed by addition of 10 µL MTT solution (5 mg/mL) into each well, incubated for 4 hour at 37 °C followed by addition of 50 µL DMSO to dissolve the formazan precipitate according to manufacturer’s protocol. Aliquots were drawn from each well and color intensity was measured spectrophotometrically in an ELISA plate reader (Biotek, ELx800) at 540 nm. The cell viability ratio was calculated by the following formula: % cytotoxicity = [Mean OD of test cells] − [Mean OD of control cells]/[Mean OD of control cells] × 100. Viability counts were then plotted against corresponding drug concentrations to yield cytotoxicity (CC50) through non-linear regression (sigmoid dose-response/variable slope equation). Drug CC50 values were then used to define selectivity indices, which is a measure of drug safety in human relative to parasitic cells and was calculated as the ratio of the CC50 value determined on the U937 cells (cytotoxicity) and the IC50 value determined on parasite growth inhibition 3D7 (anti-plasmodial activity). In this study, we set SI > 2 as cut-off as an indicative of low drug cytotoxicity.

P. falciparum 3D7 = assay: Fixed-ratio isobologram drug interaction assay with CQ/DHA, 3D7; format: cell-based, Plasmodium falciparum; details: Pf3D7
Protocol: (§2) A modified fixed-ratio isobologram method was used to assess interaction between CQ/DHA and Pht analogues. Briefly, a total of 5 solutions containing fixed-ratio mixtures of Pht derivatives with either CQ or DHA were prepared in the following ratios: 1:1, 2:1, 3:2, 2:3, and 1:4. The starting concentrations for ten 2 fold-serial dilutions across the microtiter plate were assigned so that the IC50 of each drug would be in the 5th serial dilution of the plate. Each drug was tested alone and at fixed ratios of its IC50. The assessment of drug interaction was based on the calculation of the fractional inhibitory concentration (FIC) of two drugs in the […]. FIC was calculated for each association by dividing the IC50 of the drug in the combination by the IC50 of the drug alone.

P. falciparum W2 = assay: Fixed-ratio isobologram drug interaction assay with CQ/DHA, W2; format: cell-based, Plasmodium falciparum; details: PfW2
Protocol: as §2

[3] = tested on: P. falciparum 3D7 (Pf3D7), CQ sensitive; assay: SYBR Green I growth inhibition assay, asynchronous P. falciparum 3D7 culture; format: cell-based, Plasmodium falciparum; details: SYBR Green, mean of three experiments, NDR / No IC50 = no dose response
Excerpt: as §1
The laboratory-adapted P. falciparum strains 3D7 (Africa; CQ sensitive) and W2 (Africa; CQ resistant), were acquired from Malaria Research and Reference Reagent Resource Center (MR4) (Manassas, VA, USA) and maintained with type O +ve erythrocytes suspended in continuous complete culture medium as described. Complete culture media consisted of 10.43 g/litre of RPMI 1640-HEPES supplemented with 10% (vol/vol) human AB serum, 92.6 mg/litre L-glutamine, 50 mg/liter hypoxanthine, 2 g/litre sodium bicarbonate (Sigma-Aldrich, St. Louis, MO). Incubation of cultures was at 37 °C and maintained in a low oxygen atmosphere (5% O2, 5% CO2, 90% N). The levels of parasitemia in the cultures were maintained at between 2 and 10%, with 5% hematocrit. Media was changed after every 24 hours and parasitemia monitored every 48 hours. Synchronous cultures were prepared by sorbitol lysis. Stock solutions of the Pht, Pht analogues, and DHA were prepared in absolute dimethyl sulfoxide (DMSO) while CQ was prepared in distilled water. The prepared drug stock solutions were used immediately or stored at −80 °C for not longer than one month before use. Stock solutions were further diluted in serum free RPMI 1640 media (stock solution solvent final conc. 0.05%) before performing a 2-fold serial dilution to achieve dose ranges of 0.2 µM to 100 µM (Pht and derivatives), 7.8 to 2,000 nM (CQ) and 0.17 to 87.5 nM (DHA). 25 μL of the drug diluents were aliquoted into 96 well plates and used immediately. Alternatively, the stock solutions were diluted in distilled water, 2-fold serial dilution performed on a 96 well plate and allowed to air dry in a laminar flow hood after which dried plates were stored at 4 °C until use. SYBR Green I assay technique with additional modification was used for drug susceptibility testing of the parasites. Parasite cultures of >1% parasitemia were diluted to 1% parasitemia and 2% hematocrit and 200 μL were transferred onto drug pre-dosed plates and incubated at 37 °C for 90 hours, [40]. Drug exposure was terminated by freezing the drug plates at −80 °C for 24 hours after which lysis buffer containing (per liter) 100 mM Tris-HCl, 10 mM EDTA, 0.016% Saponin, 1.6% triton X-100 and 20X SYBR Green I dye was added and the sample incubated for 2 hours in the dark. Relative fluorescence units (RFU) were read using the Perkin Elmer Wallac 1420 fluorescence plate reader, with excitation and emission wavelengths of 485 nm and 535 nm respectively. The readouts values were aligned with corresponding drug doses and analysis performed by Graph-pad Prism software. The drug concentrations (x value) were transformed using X = Log[X] and plotted against the counts (y values) and the data analysed by non-linear regression (sigmoid dose-response/variable slope equation) to yield the IC50.

[4] = Plasmodium falciparum, 3D7, Pf3D7, asynchronous culture, read-out: IC50 (SE) µg/mL

## CC(C)C[C@H](c1nc2ccccc2n1Cc1cn(-c2ccccc2)nn1)N1C(=O)c2ccccc2C1=O [Compound 6a]
[1]
  effect on ring stage parasitemia: reduction in ring stage parasitemia
  effect on mature blood stage parasite titres (parasitemia): negligible
  effect on ring-stage growth and morphology: active against ring-stage forms
[1]; early trophozoites
  effect on progression from trophozoites to schizonts / schizont morphology: did not interfere with development of parasite progression from trophozoites to schizonts
CQ resistant PfW2 strain
  IC50: 0.7 µM
[2]
  selectivity ratio at 24 h: 1.01 ± 1.5
  CC50 at 24 h: 0.91 ± 0.32 µM
P. falciparum 3D7
  interaction when combined with CQ and DHA: synergistic activity
P. falciparum W2
  interaction when combined with CQ and DHA: synergistic activity
[3]; [4]
  IC50: 0.7 µg/mL

## CC(C)[C@H](c1nc2ccccc2n1Cc1cn(-c2ccc(F)cc2)nn1)N1C(=O)c2ccccc2C1=O [Compound 6m]
[1]
  effect on ring stage parasitemia: did not affect parasite growth
  effect on mature blood stage parasite titres (parasitemia): reduction in parasitemia
  effect on ring-stage growth and morphology: did not arrest ring-stage maturation
[1]; early trophozoites, concentration = individual IC50, 6 hours after exposure
  effect on trophozoites: trophozoite growth did not appear to be affected
[1]; early trophozoites
  effect on progression from trophozoites to schizonts / schizont morphology: schizonts appeared less granular and lacked distinguishable merozoites
CQ resistant PfW2 strain
  IC50: 3.8 µM
[2]
  selectivity ratio at 24 h: 1.11 ± 1.5
  CC50 at 24 h: 0.78 ± 0.32 µM
[3]; Pf3D7, asynchronous culture, read-out: IC50 (SE) µM
  IC50: 3.5 µM
[3]; Plasmodium falciparum, 3D7, Pf3D7, asynchronous culture, read-out: IC50 (SE) µM
  IC50: < 5.14 µM
[3]; [4]
  IC50: 1.8 µg/mL
